Laboratory results reported in ChEMBL document CHEMBL5046251, “Discovery of a Series of Pyrimidine Carboxamides as Inhibitors of Vanin-1” (J Med Chem, 2022).
Each block holds one compound with its values, some of them ahead of it. Calls of active or inactive are those of the source. The calls are words filed in the database; no cut-off is given here.

What was measured:
Pantetheinase [1] = target: T1, Pantetheinase (Homo sapiens, UniProt O95497); experiment: Binding affinity to recombinant N-terminal FLAG/His6-tagged human vanin-1 expressed in CHO cells assessed as dissociation constant by surface plasmon resonance analysis
T1 sequence (O95497 whole entry): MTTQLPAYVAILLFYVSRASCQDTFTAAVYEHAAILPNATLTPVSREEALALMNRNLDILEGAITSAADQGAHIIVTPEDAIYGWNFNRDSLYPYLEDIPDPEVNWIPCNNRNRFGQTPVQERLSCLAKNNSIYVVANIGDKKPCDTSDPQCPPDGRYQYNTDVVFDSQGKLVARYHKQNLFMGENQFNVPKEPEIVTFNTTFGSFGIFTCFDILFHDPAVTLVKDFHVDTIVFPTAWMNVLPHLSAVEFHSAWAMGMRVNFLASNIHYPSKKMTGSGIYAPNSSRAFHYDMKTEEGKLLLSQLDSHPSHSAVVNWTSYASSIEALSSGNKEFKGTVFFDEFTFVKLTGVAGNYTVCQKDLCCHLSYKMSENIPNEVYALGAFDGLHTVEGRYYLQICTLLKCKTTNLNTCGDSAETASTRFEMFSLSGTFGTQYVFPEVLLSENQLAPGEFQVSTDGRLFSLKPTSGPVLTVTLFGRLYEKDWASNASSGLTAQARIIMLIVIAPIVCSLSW

[2] = Apparent permeability across apical to basolateral side in RRCK cells; conditions: dog, MDCK
[3] = target: T2, Pantetheinase (Homo sapiens) (UniProt O95497); experiment: Binding affinity to recombinant N-terminal FLAG/His6-tagged human vanin-1 expressed in CHO cells assessed as binding constant (Koff) by surface plasmon resonance analysis
T2 sequence (whole entry): T1 sequence (O95497 whole entry)

Caspase-2 = target: T3, Caspase-2 (Homo sapiens, UniProt P42575); experiment: Inhibition of caspase-2 (unknown origin)
T3 sequence (P42575 whole entry): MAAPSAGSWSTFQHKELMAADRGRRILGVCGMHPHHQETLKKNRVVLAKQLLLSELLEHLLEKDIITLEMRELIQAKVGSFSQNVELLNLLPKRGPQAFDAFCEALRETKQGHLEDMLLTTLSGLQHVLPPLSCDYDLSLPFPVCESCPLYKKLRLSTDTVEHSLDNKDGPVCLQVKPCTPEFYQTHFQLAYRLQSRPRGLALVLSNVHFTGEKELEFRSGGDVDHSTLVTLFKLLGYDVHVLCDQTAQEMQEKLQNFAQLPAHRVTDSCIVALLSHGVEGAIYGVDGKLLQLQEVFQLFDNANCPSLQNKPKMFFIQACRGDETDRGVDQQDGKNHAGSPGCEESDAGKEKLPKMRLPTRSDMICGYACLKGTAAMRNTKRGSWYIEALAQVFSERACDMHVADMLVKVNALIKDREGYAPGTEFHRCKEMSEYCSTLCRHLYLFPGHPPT

[4] = Half life in rat; type: ADME; conditions: in vivo
[5] = Intrinsic clearance in human hepatocytes assessed per million cells; type: ADME, cell-based, Hepatocyte
[6] = Oral bioavailability in rat; type: ADME, organism-based; conditions: in vivo
Biotinidase = target: T4, Biotinidase (Homo sapiens, UniProt P43251); experiment: Inhibition of N-terminal FLAG/His6-tagged human biotinidase expressed in COS cells using biotinyl-7-amino-4-trifluoromethylcoumarin as substrate preincubated for 10 mins followed by substrate addition and measured after 90 mins; type: cell-based
T4 sequence (P43251 whole entry): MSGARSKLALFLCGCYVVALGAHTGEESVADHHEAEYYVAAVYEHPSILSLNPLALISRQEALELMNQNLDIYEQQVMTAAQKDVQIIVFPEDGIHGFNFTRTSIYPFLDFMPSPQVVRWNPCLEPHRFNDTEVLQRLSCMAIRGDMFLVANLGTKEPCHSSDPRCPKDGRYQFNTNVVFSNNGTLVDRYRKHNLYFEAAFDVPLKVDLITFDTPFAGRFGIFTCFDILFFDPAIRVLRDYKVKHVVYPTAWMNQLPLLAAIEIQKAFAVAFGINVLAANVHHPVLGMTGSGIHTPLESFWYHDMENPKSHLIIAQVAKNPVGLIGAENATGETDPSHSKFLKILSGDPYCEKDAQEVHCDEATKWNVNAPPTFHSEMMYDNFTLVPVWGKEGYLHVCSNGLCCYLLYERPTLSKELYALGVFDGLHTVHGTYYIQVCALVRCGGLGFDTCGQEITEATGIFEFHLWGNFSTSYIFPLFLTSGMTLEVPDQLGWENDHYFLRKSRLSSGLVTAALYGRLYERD

Caspase-3 = target: T5, Caspase-3 (Homo sapiens, UniProt P42574); experiment: Inhibition of caspase-3 (unknown origin)
T5 sequence (P42574 whole entry): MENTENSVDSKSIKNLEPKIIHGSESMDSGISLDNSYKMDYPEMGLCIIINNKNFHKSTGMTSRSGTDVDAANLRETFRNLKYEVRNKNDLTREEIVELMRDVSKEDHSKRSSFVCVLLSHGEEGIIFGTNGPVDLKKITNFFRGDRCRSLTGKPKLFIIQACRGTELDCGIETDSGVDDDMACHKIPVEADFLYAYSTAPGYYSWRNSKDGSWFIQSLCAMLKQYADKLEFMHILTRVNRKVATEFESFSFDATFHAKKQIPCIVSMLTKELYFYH

[7] = Efflux ratio in human MDR cells; type: ADME, cell-based
Caspase-1 = target: T6, Caspase-1 (Homo sapiens, UniProt P29466); experiment: Inhibition of caspase-1 (unknown origin)
T6 sequence (P29466 whole entry): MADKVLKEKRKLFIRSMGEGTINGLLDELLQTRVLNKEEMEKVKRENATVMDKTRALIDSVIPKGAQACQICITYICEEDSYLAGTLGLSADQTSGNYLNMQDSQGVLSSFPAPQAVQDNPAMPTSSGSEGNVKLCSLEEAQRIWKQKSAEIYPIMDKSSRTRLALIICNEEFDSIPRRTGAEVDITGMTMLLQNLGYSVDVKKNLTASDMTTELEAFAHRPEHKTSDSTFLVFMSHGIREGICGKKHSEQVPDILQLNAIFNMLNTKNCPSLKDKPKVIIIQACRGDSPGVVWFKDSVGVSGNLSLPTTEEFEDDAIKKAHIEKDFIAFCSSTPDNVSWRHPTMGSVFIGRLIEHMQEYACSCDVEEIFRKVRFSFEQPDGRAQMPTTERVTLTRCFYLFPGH

[8] = Lipophilicity, log D of the compound in Octanol/buffer by shake-flask method
Pantetheinase [9] = target: T1, Pantetheinase; experiment: Inhibition of recombinant N-terminal FLAG/His6-tagged human vanin-1 expressed in CHO cells at 10 uM by 1H NMR analysis; type: cell-based
[10] = Intrinsic clearance in human liver microsomes; type: ADME, Microsome
Pantetheinase [11] = target: T7, Pantetheinase (Mus musculus, UniProt Q9Z0K8); experiment: Inhibition of mouse vanin-1
T7 sequence (Q9Z0K8 whole entry): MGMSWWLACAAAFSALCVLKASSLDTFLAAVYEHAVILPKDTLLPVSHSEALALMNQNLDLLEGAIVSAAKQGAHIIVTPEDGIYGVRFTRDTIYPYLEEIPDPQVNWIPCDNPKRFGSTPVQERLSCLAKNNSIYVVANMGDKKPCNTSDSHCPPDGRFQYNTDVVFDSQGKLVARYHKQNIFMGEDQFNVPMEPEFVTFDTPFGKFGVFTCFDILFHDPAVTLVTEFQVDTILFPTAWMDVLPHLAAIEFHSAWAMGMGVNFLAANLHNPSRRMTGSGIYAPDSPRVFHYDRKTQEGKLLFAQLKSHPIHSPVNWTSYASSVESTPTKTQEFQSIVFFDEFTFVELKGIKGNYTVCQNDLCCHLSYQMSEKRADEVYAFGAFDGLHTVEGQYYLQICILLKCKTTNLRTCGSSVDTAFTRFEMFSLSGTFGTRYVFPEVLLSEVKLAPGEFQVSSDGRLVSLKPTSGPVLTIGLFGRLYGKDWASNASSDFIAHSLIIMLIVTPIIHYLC

[12] = Plasma protein binding in human assessed as unbound fraction; type: ADME, cell-free
[13] = Intrinsic clearance in rat hepatocytes assessed per million cells; type: ADME, cell-based, Hepatocyte
[14] = Volume of distribution at steady state in rat; type: ADME; conditions: in vivo, read-out: Vdss
[15] = Clearance in rat; type: ADME; conditions: in vivo
[16] = target: T2, Pantetheinase (Homo sapiens); experiment: Binding affinity to recombinant N-terminal FLAG/His6-tagged human vanin-1 expressed in CHO cells assessed as binding constant (Kon) by surface plasmon resonance analysis
[17] = Half life in mouse; type: ADME, organism-based; conditions: in vivo
[18] = Unbound clearance in mouse; type: ADME, organism-based; conditions: in vivo
[19] = Volume of distribution at steady state in mouse; type: ADME, organism-based; conditions: in vivo, read-out: Vdss
[20] = Oral bioavailability in mouse; type: ADME, organism-based; conditions: in vivo
[21] = Apparent intrinsic clearance in mouse liver microsome; type: ADME; conditions: liver microsomes, read-out: CLH
Mus musculus [22] = experiment: Anti-colitis activity against DSS-induced BALB/c mouse model assessed as increase in body weight at 50 mg/kg, sc measured on day 8 and 9; type: functional, organism-based; conditions: time 8-9 day
Mus musculus [23] = experiment: Anti-colitis activity against DSS-induced colitis BALB/c mouse model assessed as effect on colon length at 50 mg/kg, sc measured after 14 days; type: functional, organism-based; conditions: time 14.0 day
[24] = Plasma protein binding in mouse assessed as unbound fraction; type: ADME, cell-free
[25] = Apparent intrinsic clearance in human liver microsome; type: ADME; conditions: liver microsomes, read-out: CLH
[26] = Total clearance in mouse; type: ADME, organism-based; conditions: in vivo
Pantetheinase [27] = target: T1, Pantetheinase; experiment: Inhibition of human plasma vanin-1 using pantetheine-7-amino-4-trifluoromethykournarin as substrate preincubated for 30 mins followed by substrate addition; type: cell-free
Mus musculus [28] = experiment: Anti-colitis activity against DSS-induced BALB/c mouse model assessed as reduction in disease activity index at 50 mg/kg, sc measured on day 8 and 9; type: functional, organism-based; conditions: time 8-9 day

- Kd (Pantetheinase [1]): 20 nM
- Papp A→B [2]: 9.5 ×10⁻⁶ cm/s
- K [3]: 0.52 s⁻¹
- IC50 (Caspase-2): > 10000 nM
- half-life [4]: 9 min
- CLint [5]: 11 µL/min/1e6 cells
- bioavailability [6]: 11%
- IC50 (Biotinidase): 18000 nM
- IC50 (Caspase-3): > 10000 nM
- efflux ratio [7]: 3.2
- IC50 (Caspase-1): > 10000 nM
- logD [8]: 0.7
- IC50 (Pantetheinase [9]): 115 nM
- Intrinsic clearance [10]: < 10 µL/min/mg
- IC50 (Pantetheinase [11]): 10.2 nM
- fraction unbound [12]: 0.00918
- CLint [13]: 45 µL/min/1e6 cells
- Vd [14]: 1.1 L/kg
- clearance [15]: 88 mL/min/kg
- K [16]: 8.1 10^7/M/s
Compound: O=C(c1cnc(NC2(c3cncnc3)CC2)nc1)N1CCCCC1

- half-life [17]: 60 min
- Papp A→B [2]: 27 ×10⁻⁶ cm/s
- CL free [18]: 49 mL/min/kg
- Vd [19]: 1.1 L/kg
- bioavailability [20]: 29%
- CLint scaled [21]: 39 mL/min/kg
- IC50 (Biotinidase): 24000 nM
- logD [8]: 1.2
- fraction unbound [24]: 0.0046
- CLint scaled [25]: 14 mL/min/kg
- Intrinsic clearance [10]: 14 µL/min/mg
- IC50 (Pantetheinase [11]): 4.8 nM
- clearance [26]: 29 mL/min/kg
- IC50 (Pantetheinase [27]): 12 nM
Compound: N#Cc1cccc(C(=O)c2cnc(NC3(c4cncnc4)CC3)nc2)c1
- Activity (Mus musculus [22]): Active
- Activity (Mus musculus [23]): Active
- Activity (Mus musculus [28]): Active
